Measurements from publication PMC12873548, “D-amino acid substitution and cyclization enhance the stability and antimicrobial activity of arginine-rich peptides” (Microbiology, 2026).
Converted amounts (≈) assume the structure as drawn. Residues, ends and D or L forms follow the SMILES beside them.

How the values were obtained:
E. coli [1] = experiment: Live/dead SYTO 9/PI fluorescence imaging; format: cell-based, Escherichia coli; conditions: mid-log phase E. coli, 2× MIC; red = damaged membranes
[2] = Stability in human serum by LC-MS; format: in vitro ADME; conditions: human serum (20% and 50%), 24 h, 37 °C; read-out LC-MS (ESI)
Experimental: (§1) The antimicrobial activity and structural stability of arginine-rich peptides were evaluated in the presence of human serum (20% and 50 %) and 5 µM Sequencing Grade Modified Trypsin (SGMT, Promega). Briefly, fresh human blood was collected in EDTA tubes and allowed to clot at room temperature for 1 h. Serum was then collected following centrifugation at 2,000 r.p.m. for 10 min at 4 °C. Peptides were incubated with 20%, 50% human serum and 5 µM SGMT in 50 mM Tris-HCl buffer (1 mM CaCl₂, pH 7.6) for 24 h at 37 °C. After the incubation period, the solutions were further incubated with E. coli (ATCC 25922 and O157:H7), P. aeruginosa (PA01, NCTC13437) and S. aureus (ATCC12600), and the MIC was assessed as described in the ‘Antibacterial assessment’ section. Additionally, the samples were analysed using electrospray ionization MS to monitor structural changes based on the molecular weight of the peptides.

E. coli [3] = experiment: Intracellular ROS, DCFH-DA; format: cell-based, Escherichia coli; conditions: peptides at MIC, 1/2× MIC, 1/4× MIC, 4 h, 37 °C
Experimental: Total reactive oxygen species (ROS) was measured using an oxidation-sensitive fluorescent dye, 2′,7′-dichlorodihydrofluorescein diacetate (DCFH-DA). For this assay, E. coli and S. aureus cultures were adjusted to an OD600 of 0.3 in MH broth and exposed to peptides at MIC, 1/2× MIC and 1/4× MIC, or to positive control (5 mM H2O2) for 4 h at 37 °C. Cells were centrifuged at 4,000 r.p.m. for 10 min at 4 °C and resuspended in PBS containing 10 µM DCFH-DA. The suspension was incubated under the same conditions for 30 min. Finally, cells were washed twice with PBS, and 150 µl aliquots were transferred to 96-well plates. Oxidized DCF products were detected using a Tecan Spark® microplate reader with excitation at 485 nm and emission at 530 nm. Additionally, 10 µl of E. coli cells incubated with D-R4F4 at MIC, 1/2×MIC and 1/4×MIC was collected for imaging using an All-in-One Fluorescence Microscope (Keyence, Japan).

S. aureus (12600) = format: cell-based, Staphylococcus aureus
Experimental: (§2) The MIC of arginine-based peptides was assessed using the microbroth dilution approach. Our in vitro screening included a panel of Gram-negative bacteria, Escherichia coli (ATCC 25922 and enterohaemorrhagic O157:H7) and Pseudomonas aeruginosa (PA01 and the drug-resistant strain NCTC 13437), and Gram-positive bacteria (Staphylococcus aureus ATCC 12600). Five-millilitre overnight cultures in Lysogeny broth, prepared from single isolated colonies, were diluted to 5×10^6 c.f.u. ml^−1 mid-log phase in Mueller–Hinton (MH) broth. Next, peptide concentrations (0 to 1 mM) were serially diluted twofold in 96-well plates and incubated overnight at 37 °C with the tested bacterial strains. In each case, the MIC was determined as the lowest peptide concentration at which no detectable bacterial growth was observed, employing an absorbance-based assay using a Tecan Spark® multimode plate reader. Subsequently, 10 µl aliquots from each peptide dilution were transferred to MH agar (1.5%) plates to determine the minimum bactericidal concentration (MBC) which was assessed by establishing at which concentration no visible growth of bacteria (assessed via colony formation) on the plate was observed.
as §1

E. coli (O157:H7) = format: cell-based, Escherichia coli
Experimental: as §2

S. aureus ATCC 12600 = experiment: Membrane integrity, PI uptake; format: cell-based, Staphylococcus aureus; conditions: S. aureus ATCC 12600, 5 µg ml−1 PI, 1 h
Experimental: Propidium iodide (PI) uptake was used to assess the permeabilization of the bacterial membrane upon incubation with peptides. E. coli and S. aureus cells, adjusted to an OD600 of 0.5, were placed into a 96-well plate containing 5 mM HEPES buffer (pH 7.4, supplemented with 5 mM glucose) and incubated with 5 µg ml^−1 PI for 15 min. Afterwards, different peptide concentrations were added, and PI uptake was rapidly measured every 10 min over a 1 h period using a Tecan Spark® microplate reader (λex=515 nm, λem=620 nm).

[4] = test system: P. aeruginosa (PAO1) biofilms; experiment: Disruption of pre-established biofilms, resazurin; format: cell-based, Pseudomonas aeruginosa; conditions: 48 h P. aeruginosa biofilm, peptide at 2× MIC, 18 h, 37 °C
Experimental: To establish mature P. aeruginosa (PAO1) biofilms, an overnight culture was diluted to an OD600 of 0.01 in 120 µl of M63 medium (supplemented with 1 mM MgSO₄ and 23 µM L-arginine) and incubated in flat-bottom 96-well plates at 37 °C for 48 h. Afterwards, individual wells containing biofilm were rinsed three times with PBS, and 150 µl MH broth was added with either 0.5× and 2× MIC peptides. 100 µg mL^−1 resazurin was added to measure the biofilm metabolic activity for 18 h at 37 °C using a Tecan Spark® microplate reader (λex=520 nm/λem=590 nm). c.f.u. counts were established by plating aliquots of a dilution series onto MH agar followed by overnight incubation at 37 °C. Residual biofilm biomass was subsequently quantified using 0.1% CV staining.
Three-dimensional images of biofilm communities, with and without peptide exposure, were captured using an All-in-One Fluorescence Microscope (Keyence, Japan). Pre-established biofilms in a 96-well plate were incubated with 2× MIC peptides for 3 h at 37 °C. Dual staining was performed with 5 µl of SYTO 9/PI for 30 min. Biofilm thickness was assessed through 2.0 µm optical cross-sections with 50 µm pinholes.

P. aeruginosa (PA01) [5] = format: cell-based, Pseudomonas aeruginosa
Experimental: as §2, §1

[6] = test system: P. aeruginosa (NCTC13437); format: cell-based, Pseudomonas aeruginosa; conditions: P. aeruginosa NCTC13437 (drug-resistant); 10 µl aliquots plated on MH agar, no visible colonies
Experimental: as §2

P. aeruginosa (PA01) [7] = format: cell-based, Pseudomonas aeruginosa; conditions: P. aeruginosa PA01
Experimental: as §2

S. aureus (ATCC12600) = format: cell-based, Staphylococcus aureus; conditions: S. aureus ATCC12600
Experimental: as §2

[8] = control without serum or trypsin
[9] = peptide incubated with 5 µM SGMT trypsin in 50 mM Tris-HCl, 1 mM CaCl2, pH 7.6, 24 h at 37 °C before MIC
[10] = peptide incubated with 20% human serum 24 h at 37 °C before MIC
[11] = peptide incubated with 50% human serum 24 h at 37 °C before MIC
[12] = 10 µl aliquots plated on MH agar, no visible colonies
[13] = MH broth, 5×10^6 cells, 24 h, 37 °C, absorbance 600 nm, triplicate

N=C(N)NCCC[C@@H]1NC(=O)[C@H](CCCNC(=N)N)NC(=O)[C@H](CCCNC(=N)N)NC(=O)[C@H](Cc2ccccc2)NC(=O)[C@H](Cc2ccccc2)NC(=O)[C@H](Cc2ccccc2)NC(=O)[C@H](Cc2ccccc2)NC(=O)[C@H](CCCNC(=N)N)NC1=O [CP-R4F4] (cyclo(RRRRFFFF))
Membrane damage, live/dead SYTO 9/PI staining (E. coli [1]): high presence of red-stained cells indicative of damaged membranes | Stability with serum proteases (LC chromatogram and mass spectrum) [2]: appeared at the same retention time in both the absence and presence of proteases | Intracellular ROS levels (E. coli [3]): highest modulation of ROS levels | MIC, Control (S. aureus (12600); [8]): 62.5 µM (≈ 75.8 µg/mL) | MIC, Trypsin (S. aureus (12600); [9]): 62.5 µM (≈ 75.8 µg/mL) | MIC, 20% human serum (S. aureus (12600); [10]): 62.5 µM (≈ 75.8 µg/mL) | MIC, 50% human serum (S. aureus (12600); [11]): 250 µM (≈ 303 µg/mL) | MBC (E. coli (O157:H7); [12]): 62.5 µM (≈ 75.8 µg/mL) | MIC (E. coli (O157:H7); [13]): 31.25 µM (≈ 37.9 µg/mL) | PI uptake, membrane integrity (S. aureus ATCC 12600): membrane-disruptive activity | Disruption of mature biofilm (resazurin metabolic activity) [4]: significantly disrupted | MIC, Control (P. aeruginosa (PA01) [5]; [8]): 31.25 µM (≈ 37.9 µg/mL) | MIC, Trypsin (P. aeruginosa (PA01) [5]; [9]): 31.25 µM (≈ 37.9 µg/mL) | MIC, 20% human serum (P. aeruginosa (PA01) [5]; [10]): 31.25 µM (≈ 37.9 µg/mL) | MIC, 50% human serum (P. aeruginosa (PA01) [5]; [11]): 125 µM (≈ 152 µg/mL) | MBC [6]: 250 µM (≈ 303 µg/mL) | MBC (P. aeruginosa (PA01) [7]; [12]): 31.2 µM (≈ 37.9 µg/mL) | MIC (P. aeruginosa (PA01) [7]; [13]): 31.2 µM (≈ 37.9 µg/mL) | MBC (S. aureus (ATCC12600); [12]): 125 µM (≈ 152 µg/mL) | MIC (S. aureus (ATCC12600); [13]): 62.5 µM (≈ 75.8 µg/mL)
